Laboratory results as given in PMC7334220, “Diamond Blackfan anemia is mediated by hyperactive Nemo-like kinase” (Nature Communications, 2020).
Read-outs that look alike come from different tables or passages of the source.

Assays:
[1] = biological target: T1, NLK (Homo sapiens, UniProt Q9UBE8); test: NLK in vitro kinase assay (NLK, c-Myb, Raptor substrates); assay type: biochemical
T1 construct: NLK, p38, or ALK5 for in vitro kinase assays were immunopurified from Kp53A1 cells; endogenous in cells; immunoprecipitated with anti-NLK (Abcam AB97642)
T1 sequence (Q9UBE8 1-527): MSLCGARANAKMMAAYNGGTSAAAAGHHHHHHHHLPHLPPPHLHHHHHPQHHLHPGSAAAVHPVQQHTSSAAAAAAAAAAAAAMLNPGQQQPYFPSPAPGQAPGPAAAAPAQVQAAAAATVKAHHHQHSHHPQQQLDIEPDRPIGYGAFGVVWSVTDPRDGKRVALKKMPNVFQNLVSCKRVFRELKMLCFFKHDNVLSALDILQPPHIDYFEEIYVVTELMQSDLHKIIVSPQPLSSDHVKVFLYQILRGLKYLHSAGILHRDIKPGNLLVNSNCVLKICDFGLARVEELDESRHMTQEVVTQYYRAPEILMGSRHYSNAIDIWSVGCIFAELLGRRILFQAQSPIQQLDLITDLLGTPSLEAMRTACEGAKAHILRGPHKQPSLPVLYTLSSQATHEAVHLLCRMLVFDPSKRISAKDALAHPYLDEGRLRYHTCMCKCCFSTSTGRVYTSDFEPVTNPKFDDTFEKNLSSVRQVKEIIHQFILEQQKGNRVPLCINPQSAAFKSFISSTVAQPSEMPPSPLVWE
Experimental: Equivalent protein was loaded between samples. b—blue Transduced progenitors were differentiated for 15 days and sorted for surface expression of CD235 + , CD41 + and CD11b + population NLK mRNA was assessed by qRT-PCR. c Control and shRPS19-transduced CB progenitors were differentiated for 10 days prior to separation into CD71^+ and CD71^- populations and assessed for pThr298-NLK phosphorylation by Western blot analysis. d—purple CB CD34 + progenitors were transduced with shRNA against luciferase (shLuc) or RPS19 (shRPS19) along with CFP-NLK and YFP-NLK and differentiated for 10 days. NLK dimerization was quantified by FRET. e—left panel NLK was immunoprecipitated from transduced differentiating CD71^+ and CD71^- populations after 10 days, and incubated in the presence of ATP, Mg^2+ and dephosphorylated NLK (i orange), c-Myb (ii—blue) and Raptor (iii—green) for 30 min at 37 °C. Phosphorylation was detected by a combination of anti^-phosphoserine-HRP and anti-phosphothreonine-HRP antibodies, or mouse anti-phosphoserine and anti-mouse-HRP antibodies. e—right panel For comparison, NLK in vitro kinase activity was assessed from CD235^+, CD41^+ and CD11b^+ populations enriched after identical treatments. f A panel of eight small molecule p38 inhibitors were titrated into in vitro kinase assays in the presence of activated NLK or p38 from stimulated Kp53A1 cells. The IC50 for NLK and p38 for each compound was calculated. The data are represented diagrammatically with IC50 values represented as vertical lines along a concentration gradient for NLK and p38. Kinase activity is represented as blue and the extent of inhibition is depicted in white. […] Bars represent means ± SD with individual data points overlaid. n = 3 independent experiments performed in triplicate.Statistics: two-tailed Student’s t test, significant *p < 0.05. Also see Supplementary Figs. 3 and 4. Source data are provided as a Source Data file. […] Inhibitors were added to cells at indicated concentrations with a final DMSO concentration of 0.5%. […] IC50 calculations were obtained using 8–9 concentrations of compound and generated using the IC50 Calculator software by AAT Bioquest®. NLK, p38, or ALK5 for in vitro kinase assays were immunopurified from Kp53A1 cells. NLK activation was induced by incubating cells at 32° for 24-48 h, p38 by stimulating with IL-3, IL-6, SCF, and Epo at the same concentrations used for differentiating erythroid progenitors.
For NLK kinase analysis, cultures were treated as indicated and lysed for 30 min at 4 °C in 750 μl of kinase lysis buffer (50 mM Tris [pH 7.4], 5 mM EDTA, 250 mM NaCl, 0.1% Triton X-100, 50 mM NaF, 0.1 trypsin inhibitor unit of aprotinin per ml, 50 μg of phenylmethylsulfonyl fluoride per ml, 100 μM sodium vanadate, 1 μg of leupeptin per ml). For TGFβR1 kinase analysis, cells were lysed in membrane kinase buffer (10 mM Tris-HCl (pH8.0), 140 mM NaCl, 300 mM KCl, 0.5% Triton X-100, and 0.5% sodium deoxycholate with complete protease inhibitor cocktail (Roche)). Extracts were clarified, and equivalent protein was incubated overnight at 4 °C with antibody (NLK: #AB97642; Abcam, TGFβR1: V22; Santa Cruz Biotechnology). Immune complexes were collected with Catch and Release® V2.0 Reversible Immunoprecipitation System and diluted in kinase buffer (25 mM Tris [pH 7.4], 10 mM MgCl2, 1 mM dithiothreitol). When cell numbers were limiting, NLK activity was amplified by adding 0.5 µg dephosphorylated NLK prior to performing kinase reaction. 50 μl of kinase buffer containing NLK or TGFβR1 sample and 5 μM ATP was incubated in the presence of biotinylated substrate (NLK, c-Myb, or Raptor for NLK and Smad2 or Smad3 for TGFβR1) immobilized on streptavidin-coated 96-well plates.

[2] = test system: p38; details: reported, no reference given; read-out: reported IC50 against p38; cited from earlier work
[3] = test system: RPS19-insufficient cord blood CD34+ HSPCs; test: In vitro differentiation of cord blood CD34+ HSPCs transduced with shRNA against RPS19 (cell count and flow cytometry); assay type: cell-based, human
Experimental: Cells were plated at 2000 cell per well in 96-well plates in the presence or absence of doxycycline. Relative amounts of live cells were quantified by luciferase-based Cell titer-Glo® assay. b TGFβR1 inhibitors were assessed for their ability to increase cell expansion in RPS19-insuffiency. As a control, vehicle alone (no doxycycline) is represented at the far left while all other samples were treated with doxycycline to induce RPS19-insufficiency. c Kit^+ erythroid progenitors were grown in the absence of doxycycline and in the presence of 10 µM of indicated compound. In addition, cells were treated with 5 ng/ml of TGFβ1 for 5 days before being subjected to Cell titer-Glo® assay. d Differentiating cord blood CD34^+ progenitors were transduced with shRNA against luciferase or RPS19 and treated with inhibitors at working concentrations for TGFβ inhibition every three days. […] Cells were counted and CD235^+ erythroid (i and iii) and CD11b^+ myeloid cell (ii and iv) percentages were determined by flow cytometry. The number of erythroid or myeloid cells is expressed as a percentage of the number of that lineage with no cytokine or drug treatment. Bars represent means ± SD with individual data points overlaid. n = 3 independent experiments performed in triplicate. Statistics: two-tailed Student’s t test, significant *p < 0.05. Also see Supplementary Fig. 1. Erythroid expansion is depicted in red while myeloid is in purple. Source data are provided as a Source Data file.
Cells were counted and assessed for cell surface expression of CD235. b Lin-Kit^+ hematopoietic progenitors were obtained from three mouse embryos expressing tetracycline-inducible shRNA against RPS19 at day E14.5 or three untreated mice, and thee mature RPL11^+/+ or three mature RPL11^+/lox mice treated with tamoxifen for eight weeks. […] Values were expressed as a percentage relative to untreated controls. c, d Intracellular phosphorylation of NLK at Thr298 was determined by capillary electrophoresis using the Peggy Sue™ Automated Western blotting platform. After lysis, 4 µg of protein from the CD235^+ population was probed against pThr298-NLK and normalized to GAPDH. […] After counting the total cell population, the ratio of CD235^+ erythroblasts was determined by flow cytometry and number of CD235^+ erythroblasts calculated. This was expressed as a percentage of the average number of erythroid cells present in untreated healthy controls. f NLK phosphorylation was assessed by capillary electrophoresis as above. Bars represent means ± SD with individual data points overlaid. […] Statistics: two-tailed Student’s t test, significant *p < 0.05. Also see Supplementary Fig. 8. Source data are provided as a Source Data file.
Primary human CD34^+ hematopoietic stem and progenitor cells were purified from cord or peripheral blood (New York Blood Center) or from human fetal liver tissue (Advanced Bioscience Resources and University of California, Los Angeles Center for AIDS Research) by using magnetic-activated cell sorting (Miltenyi Biotec) and were cryopreserved. Upon thawing, cells were cultured in x-Vivo15 media (Lonza) containing 10% fetal bovine serum, fms-related tyrosine kinase 3 (50 ng/ml), […] (50 ng/ml), interleukin-3 (IL-3; 20 ng/ml), interleukin-6 (IL-6; 20 ng/ml), and stem cell factor (50 ng/ml). When applied, TGFβ1 was added at 5 ng/ml. Kp53A1 cells were obtained from Javier Leon and cultured in DMEM supplemented with 10% fetal bovine serum at 37 or 32 °C.

[4] = test system: ribosome-competent cord blood CD34+ HSPCs (shLuc); test: In vitro differentiation of cord blood CD34+ HSPCs transduced with control shRNA (luciferase); assay type: cell-based, human; details: ribosome-competent cells; 5 ng/ml TGFβ1; 5 µM compound; 15 days; Fig. 1e
Experimental: Lin-Kit^+ fetal liver cells were obtained from mouse embryos expressing tet-on shRNA against RPS19, at day E14.5-15.5. Cells were plated at 2000 cell per well in 96-well plates in the presence or absence of doxycycline. Relative amounts of live cells were quantified by luciferase-based Cell titer-Glo® assay. b TGFβR1 inhibitors were assessed for their ability to increase cell expansion in RPS19-insuffiency. As a control, vehicle alone (no doxycycline) is represented at the far left while all other samples were treated with doxycycline to induce RPS19-insufficiency. c Kit^+ erythroid progenitors were grown in the absence of doxycycline and in the presence of 10 µM of indicated compound. In addition, cells were treated with 5 ng/ml of TGFβ1 for 5 days before being subjected to Cell titer-Glo® assay. d Differentiating cord blood CD34^+ progenitors were transduced with shRNA against luciferase or RPS19 and treated with inhibitors at working concentrations for TGFβ inhibition every three days. […] Cells were counted and CD235^+ erythroid (i and iii) and CD11b^+ myeloid cell (ii and iv) percentages were determined by flow cytometry. The number of erythroid or myeloid cells is expressed as a percentage of the number of that lineage with no cytokine or drug treatment. […]
Fig. 8 NLK inhibition increases expansion of erythroid progenitors from human and murine models of DBA. a Human cord blood CD34^+ progenitors were transduced with lentivirus co-expressing GFP with shRNA against luciferase (shLuc), RPS19 (shRPS19), or RPL11 (shRPL11). […] Cells were counted and assessed for cell surface expression of CD235. b Lin-Kit^+ hematopoietic progenitors were obtained from three mouse embryos expressing tetracycline-inducible shRNA against RPS19 at day E14.5 or three untreated mice, and thee mature RPL11^+/+ or three mature RPL11^+/lox mice treated with tamoxifen for eight weeks. […] Values were expressed as a percentage relative to untreated controls. c, d Intracellular phosphorylation of NLK at Thr298 was determined by capillary electrophoresis using the Peggy Sue™ Automated Western blotting platform. […]

[5] = Fig. 3f, activated NLK from stimulated Kp53A1 cells, read-out: NLK Observed IC50

**Q.** With `Cn1c(NC[C@@H](N)Cc2ccccc2)nc(-c2ccncc2)c(-c2ccc3ccccc3c2)c1=O` [AMG-548] as the compound, how does the IC50 [1, 5] read?
**A.** 3.6 nM

**Q.** Which IC50 [2] does the source give for `Cc1cccc(-c2nn3c(c2-c2ccnc4ccc(C(N)=O)cc24)CCC3)n1` [Galunisertib] here?
**A.** 405 nM

**Q.** What about the IC50 ([1]; Supplementary Fig. 1e, read-out: IC50 against NLK) of the same compound?
**A.** 1340 nM

**Q.** What about the “inhibition of NLK-mediated phosphorylation of NLK substrates NLK, c-Myb and Raptor” value ([1]; added to activated NLK in vitro, Supplementary Fig. 1c) of the same compound?
**A.** 40–45%

**Q.** And the “increase of erythropoiesis in RPS19-insufficiency compared with control treated cells” value ([3]; CD235+ erythroid cells after 15 days, inhibitors at working concentrations for TGFβ inhibition every three days, Fig. 1d)?
**A.** 3.2 fold

**Q.** Which results are given for `C[S+]([O-])c1ccc(-c2nc(-c3ccncc3)c(-c3ccc(F)cc3)[nH]2)cc1` (centres unmarked) [SB203580]?
**A.** erythroid expansion (CD235) in RPS19-insufficient HSPCs ([3]; 12 days, recommended concentrations, rebuttal Experiment 12): significantly increased; improvement of erythropoiesis (comparison of SD208 with p38 inhibitors) ([3]; CD235+, 12 days, recommended concentrations, Supplementary Fig. 2b): improved erythropoiesis

**Q.** Which “restoration of erythroid and myeloid expansion of TGFβ-treated cells” value [4] does the source give for `Cc1cccc(-c2[nH]c(C(C)(C)C)nc2-c2ccc3nccnc3c2)n1` [SB525334] here?
**A.** restored

**Q.** What about the “erythropoiesis, % of controls, in TGFβ-treated cells” value ([3]; RPS19-insufficient cells, 5 ng/ml TGFβ1, 5 µM, Fig. 1e.iii) of the same compound?
**A.** 128.6%

**Q.** And the “effect on erythropoiesis of cells not treated with TGFβ” value ([3]; RPS19-insufficient cells, 5 µM, Fig. 1e.iii)?
**A.** did not influence

**Q.** For `CCc1nc(-c2cccc(C)c2)c(-c2ccnc(NC(=O)c3ccccc3)c2)s1` [TAK-715], which IC50 [1, 5] is on record?
**A.** 9300 nM
